This note sets out measurements from patent publication US20250346931A1, “METHODS FOR PRODUCING HALOGENATED COMPOUNDS” (BIGELOW LABORATORY FOR OCEAN SCIENCES, priority 2022, published 2025).

In series [1] the test system is rumen-derived microbial communities. Description: Inhibition of methane production in rumen-derived microbial culture. The format is cell-based, dairy cattle. The following applies: for IC50: Bos taurus, read-out: concentration giving 50% suppression of methane production. Here is the method: FIG. 5 illustrates the production and testing process of small organic halogenated compounds for inhibition of methanogenesis. In this example, the small organic halogenated compounds produced by VBPO are incubated in a microbial culture system derived from rumen fluid obtained from dairy cattle, to determine their relative abilities at inhibiting methane production. Briefly, 1,1-dibromoacetone, co-product bromoform and derivative dibromomethane, were separately added to the culture systems. The rate of methane production was monitored in each reaction (FIGS. 6A-6C).

Series [2] is described as follows: ciVCPO reaction velocity with PAA or H2O2 as peroxide source, Michaelis-Menten fit. The format is biochemical. An excerpt:
This Example describes a method for utilizing peracetic acid as a substrate for production of small, halogenated organic compounds in lieu of hydrogen peroxide using ciVCPO. PAAM is a readily available source of peracetic acid, consisting of 32% w/v peracetic acid and 6% w/v hydrogen peroxide. As peracetic acid is not an efficient two electron reductant, and unlike hydrogen peroxide, cannot produce oxygen in the presence of hypochlorous acid and catalytic quantities of chloride ions, hydrogen peroxide must be removed to avoid oxygen production employing the enzyme catalase, derived from bovine liver.
The reaction velocity is fitted according to Michaelis-Menten kinetics to give v=f([PAA] or [H2O2]).

[3] abbreviates: rumen-derived microbial communities.

Read-outs that look alike come from different tables or passages of the source.

With `BrC(Br)Br` [bromoform, reference compound], in series [1] (setting [3]), the IC50 came out at 200 nM.
In the case of `CC(=O)C(Br)Br` [1,1-dibromoacetone], the IC50 in series [1] came out at 125000 nM. Also, the “relative effectiveness for inhibiting methane production among compounds screened” value in series [1] (compared with bromoform and dibromomethane) was “least effective”.
For `BrCBr` [dibromomethane, reference compound], the IC50 in series [1] (setting [3]) was 150 nM.

B1: ciVCPO: vanadium chloroperoxidase from Curvularia inaequalis produced in Pichia pastoris (protein, UniProt P49053 1-609, looked up)
Vanadium chloroperoxidase: MGSVTPIPLPKIDEPEEYNTNYILFWNHVGLELNRVTHTVGGPLTGPPLSARALGMLHLAIHDAYFSICPPTDFTTFLSPDTENAAYRLPSPNGANDARQAVAGAALKMLSSLYMKPVEQPNPNPGANISDNAYAQLGLVLDRSVLEAPGGVDRESASFMFGEDVADVFFALLNDPRGASQEGYHPTPGRYKFDDEPTHPVVLIPVDPNNPNGPKMPFRQYHAPFYGKTTKRFATQSEHFLADPPGLRSNADETAEYDDAVRVAIAMGGAQALNSTKRSPWQTAQGLYWAYDGSNLIGTPPRFYNQIVRRIAVTYKKEEDLANSEVNNADFARLFALVDVACTDAGIFSWKEKWEFEFWRPLSGVRDDGRPDHGDPFWLTLGAPATNTNDIPFKPPFPAYPSGHATFGGAVFQMVRRYYNGRVGTWKDDEPDNIAIDMMISEELNGVNRDLRQPYDPTAPIEDQPGIVRTRIVRHFDSAWELMFENAISRIFLGVHWRFDAAAARDILIPTTTKDVYAVDNNGATVFQNVEDIRYTTRGTREDPEGLFPIGGVPLGIEIADEIFNNGLKPTPPEIQPMPQETPVQKPVGQQPVKGMWEEEQAPVVKEAP
As to B1, in series [2] (FIG. 13 legend), the “Vmax, PAA relative to Vmax, H2O2” value is “approximately twice”. Moreover, the “vmax and Km with PAA as substrate compared with hydrogen peroxide” value in series [2] (constant NaCl 150 mM) was “higher vmax and Km than hydrogen peroxide”.
